# pIC50: −log10 of the molar value.
# Biological target: T1, human CRTH2 (Homo sapiens, UniProt Q9Y5Y4)
# T1 construct: expressed in transfected cells; host or cells: CHO-K1
# T1 sequence (Q9Y5Y4 1-395): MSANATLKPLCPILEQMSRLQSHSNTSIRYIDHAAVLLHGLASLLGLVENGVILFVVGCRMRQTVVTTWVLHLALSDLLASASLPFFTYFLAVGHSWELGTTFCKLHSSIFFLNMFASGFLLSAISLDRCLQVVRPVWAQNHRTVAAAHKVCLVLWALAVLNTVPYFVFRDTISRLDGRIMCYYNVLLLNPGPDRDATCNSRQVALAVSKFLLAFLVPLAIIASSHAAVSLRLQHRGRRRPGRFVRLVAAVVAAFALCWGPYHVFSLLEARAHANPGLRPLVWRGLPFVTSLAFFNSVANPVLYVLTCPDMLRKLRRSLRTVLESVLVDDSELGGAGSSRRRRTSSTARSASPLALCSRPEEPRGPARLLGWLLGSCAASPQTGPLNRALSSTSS
# Test: Human CRTH2 Receptor Binding Assay (whole cell, [3H]ramatroban competition)
# Settings: CHO-K1 cells expressing human CRTH2 and G-alpha16; 20 nM [3H]ramatroban; 1 hour, room temperature
# Excerpt: A whole cell receptor binding assay using [^3H]ramatroban as the competing radioactive ligand was employed to evaluate the compound binding activity to human CRTH2. The radioactive ligand [^3H]ramatroban was synthesized according to Sugimoto et. al. (Eur. J. Pharmacol. 524, 30-37, 2005) to a specific activity of 42 Ci/mmol.
# A cell line stably expressing human CRTH2 was established by transfecting CHO-K1 cells with two mammalian expression vectors that harbored human CRTH2 and G-alpha16 cDNAs, respectively, using FuGene® 6 transfection reagent (from Roche). Stable clones expressing CRTH2 were selected by staining each clone with BM16 (BD Pharmingen™ from BD Biosciences, a division of Becton, Dickinson and Company), which is a rat monoclonal antibody to human CRTH2. The cells were maintained as monolayer cultures in Ham's F-12 medium containing 10% fetal bovine serum, 100 units/mL penicillin, 100 μg/mL streptomycin, 2 mM glutamine, 0.5 mg/mL G418 (geneticin) for CRTH2, and 0.2 mg/mL hygromycin-B (for G-alpha 16). For whole cell receptor binding assay, the monolayer cells were rinsed once with PBS (phosphate buffered saline), dissociated using ethylenediaminetetraacetate (Versene™ EDTA from Lonza Inc.), and suspended in PBS containing 10 mM MgCl2 and 0.06% BSA (bovine serum albumin) at 1.5×10^6 cells/mL.
# The binding reactions (0.2 mL) were performed in 96-well plates at room temperature in PBS containing 1.5×10^5 cells, 10 mM MgCl2, 0.06% BSA, 20 nM [^3H]ramatroban, and test compound at various concentrations. After 1 hour of binding reactions, the cells were harvested on GF™/B filter microplates (microtiter plates with embedded glass fiber from PerkinElmer, Inc.) and washed 5 times with PBS using a Filtermate™ Harvester (a cell harvester that harvests and washes cells from microplates from PerkinElmer, Inc.). The radioactivities bound to the cells were determined using a microplate scintillation counter (TopCount® NXT, from PerkinElmer, Inc.) after adding 50 μL of Microscint™ 20 scintillation fluid (from PerkinElmer, Inc.) to each well of the filter plates. The radioactivity from non-specific binding was determined by replacing compound with 10 μM of 15(R)-15-methyl PGD2 (from Cayman Chemical Company) in the reaction mixtures. The radioactivity bound to the cells in the absence of compound (total binding) was determined by replacing compound with 0.25% of DMSO (dimethyl sulfoxide) in the reaction mixture. Specific binding data were obtained by subtracting the radioactivity of non-specific binding from each binding data.
# The IC50 value is defined as the concentration of the tested compound that is required for 50% inhibition of total specific binding. In order to calculate the IC50 value, the percent inhibition data were determined for 7 concentrations for each compound. The percent inhibition for a compound at each concentration was calculated according to the following formula, [1−(specific binding in the presence of compound)/(total specific binding)]×100. The IC50 value was then obtained by fitting the percent inhibition data to a sigmoidal dose-response (4 parameter logistic) model in the XLfit® software Excel add-in program [from ID Business Solutions Ltd., model 205, where F(x)=(A+(B−A)/(1+((C/x)^D)))].
row,SMILES,pIC50
1,"CCS(=O)(=O)c1ccc(Oc2cc(CC(=O)O)cc3ccc(C#N)cc23)nc1 [Example 14-1, [6-Cyano-4-(5-ethanesulfonyl-pyridin-2-yloxy)-naphthalen-2-yl]-acetic acid]",8.48
2,"CCS(=O)(=O)c1ccc(Oc2cc(CC(=O)O)cc3ccc(C(F)(F)F)cc23)nc1 [Example 1-16, [4-(5-Ethanesulfonyl-pyridin-2-yloxy)-6-trifluoromethyl-naphthalen-2-yl]-acetic acid]",7.72
3,CCc1c(CC(=O)O)cc2ccc(F)cc2c1Oc1ccc(S(=O)(=O)CC)cn1 [Example 19-1],7.76
4,"CCc1cc(S(=O)(=O)CC)cnc1Oc1c(C)c(CC(=O)O)cc2ccc(F)cc12 [Example 20-1, [4-(5-Ethanesulfonyl-3-ethyl-pyridin-2-yloxy)-6-fluoro-3-methyl-naphthalen-2-yl]-acetic acid]",8.54
5,"Cc1c(CC(=O)O)cc2ccccc2c1Oc1ccc(S(C)(=O)=O)cc1 [Example 3-2, [4-(4-methanesulfonyl-phenoxy)-3-methyl-naphthalen-2-yl]-acetic acid]",8.33
6,"CCS(=O)(=O)c1ccc(Oc2cc(CC(=O)O)cc3cc(OC)c(OC)cc23)cc1 [Example 1-23, [4-(4-Ethanesulfonyl-phenoxy)-6,7-dimethoxy-naphthalen-2-yl]-acetic acid]",7.01
7,"CCS(=O)(=O)c1ccc(Oc2cc(CC(=O)O)cc3ccc(OC)cc23)cc1 [Example 1-15, [4-(4-Ethanesulfonyl-phenoxy)-6-methoxy-naphthalen-2-yl]-acetic acid]",8.28
8,"Cc1ccc(S(=O)(=O)c2ccc(Oc3c(C)c(CC(=O)O)cc4ccc(F)cc34)cc2)cc1 [Example 2-29, {6-fluoro-3-methyl-4-[4-(toluene-4-sulfonyl)-phenoxy]-naphthalen-2-yl}-acetic acid]",8.55
9,"COc1ccc(S(=O)(=O)c2ccc(Oc3c(C)c(CC(=O)O)cc4ccc(F)cc34)cc2)cc1 [Example 2-30, {6-fluoro-4-[4-(4-methoxy-benzenesulfonyl)-phenoxy]-3-methyl-naphthalen-2-yl}-acetic acid]",8.57
10,"CS(=O)(=O)c1ccc(Oc2cc(CC(=O)O)cc3ccc(F)cc23)nc1 [Example 1-9, [6-fluoro-4-(5-methanesulfonyl-pyridin-2-yloxy)-naphthalen-2-yl]-acetic acid]",8.43
11,"Cc1c(CC(=O)O)cc2ccc(F)cc2c1Oc1ccc(S(=O)(=O)C2CC2)cc1 [Example 2-5, [4-(4-cyclopropanesulfonyl-phenoxy)-6-fluoro-3-methyl-naphthalen-2-yl]-acetic acid]",8.46
12,"Cc1c(CC(=O)O)cc2ccc(F)cc2c1Oc1ncc(S(C)(=O)=O)cc1Br [Example 2-36, [4-(3-bromo-5-methanesulfonyl-pyridin-2-yloxy)-6-fluoro-3-methyl-naphthalen-2-yl]-acetic acid]",10.70
13,"CCCCS(=O)(=O)c1ccc(Oc2c(C)c(CC(=O)O)cc3ccc(F)cc23)cc1 [Example 2-23, {4-[4-(butane-1-sulfonyl)-phenoxy]-6-fluoro-3-methyl-naphthalen-2-yl}-acetic acid]",8.68
14,"CCS(=O)(=O)c1cnc(Oc2cc(CC(=O)O)cc3ccc(F)cc23)c(Br)c1 [Example 1-13, [4-(3-bromo-5-ethanesulfonyl-pyridin-2-yloxy)-6-fluoro-naphthalen-2-yl]-acetic acid]",8.64
15,"CS(=O)(=O)c1ccc(S(=O)(=O)c2cc(CC(=O)O)cc3ccc(F)cc23)cc1 [Example 11-1, [6-fluoro-4-(4-methanesulfonyl-benzenesulfonyl)-naphthalen-2-yl]-acetic acid]",8.11
16,"CCS(=O)(=O)c1cnc(Oc2c(C)c(CC(=O)O)cc3ccc(F)cc23)c(C)c1 [Example 2-35, [4-(5-ethanesulfonyl-3-methyl-pyridin-2-yloxy)-6-fluoro-3-methyl-naphthalen-2-yl]-acetic acid]",8.54
17,"CCS(=O)(=O)c1cnc(Oc2cc(CC(=O)O)cc3ccc(F)cc23)c(C)c1 [Example 1-12, [4-(5-ethanesulfonyl-3-methyl-pyridin-2-yloxy)-6-fluoro-naphthalen-2-yl]-acetic acid]",8.60
18,"Cc1c(CC(=O)O)cc2ccc(F)cc2c1Oc1ccc(S(=O)(=O)N2CCCC2)cc1 [Example 2-38, {6-fluoro-3-methyl-4-[4-(pyrrolidine-1-sulfonyl)-phenoxy]-naphthalen-2-yl}-acetic acid]",8.66
19,"CCS(=O)(=O)c1ccc(Oc2cc(CC(=O)O)cc3ccc(C(F)(F)F)cc23)cc1 [Example 1-17, [4-(4-Ethanesulfonyl-phenoxy)-6-trifluoromethyl-naphthalen-2-yl]-acetic acid]",7.98

# The remaining compounds from weak to strong by pIC50, led by results:
row,pIC50,SMILES
1,6.87,"Cc1c(CC(=O)O)cc2ccc(Cl)cc2c1Oc1ccc(C#N)cc1 [Example 2-45, [6-chloro-4-(4-cyano-phenoxy)-3-methyl-naphthalen-2-yl]-acetic acid]"
2,7.90,"C=Cc1c(CC(=O)O)cc2ccc(F)cc2c1Oc1ccc(S(=O)(=O)CC)cn1 [Example 17-1, [4-(5-Ethanesulfonyl-pyridin-2-yloxy)-6-fluoro-3-vinyl-naphthalen-2-yl]-acetic acid]"
3,8.14,"CCS(=O)(=O)c1ccc(Oc2c(C)c(CC(=O)O)cc3ccc(F)cc23)c(C)c1 [Example 2-10, [4-(4-ethanesulfonyl-2-methyl-phenoxy)-6-fluoro-3-methyl-naphthalen-2-yl]-acetic acid]"
4,8.17,"CCS(=O)(=O)c1ccc(Oc2c(C3CC3)c(CC(=O)O)cc3ccc(F)cc23)nc1 [Example 18-1, [3-Cyclopropyl-4-(5-ethanesulfonyl-pyridin-2-yloxy)-6-fluoro-naphthalen-2-yl]-acetic acid]"
5,8.43,"CCS(=O)(=O)c1ccc(Oc2c(C)c(CC(=O)O)cc3ccc(F)cc23)cc1F [Example 2-17, [4-(4-ethanesulfonyl-3-fluoro-phenoxy)-6-fluoro-3-methyl-naphthalen-2-yl]-acetic acid]"
6,8.54,"Cc1c(CC(=O)O)cc2ccc(F)cc2c1Oc1ccc(S(=O)(=O)c2ccc(F)cc2)cc1 [Example 2-27, {6-fluoro-4-[4-(4-fluoro-benzenesulfonyl)-phenoxy]-3-methyl-naphthalen-2-yl}-acetic acid]"
7,8.57,"Cc1cc(S(C)(=O)=O)ccc1Oc1c(C)c(CC(=O)O)cc2ccc(Cl)cc12 [Example 2-9, [6-chloro-4-(4-methanesulfonyl-2-methyl-phenoxy)-3-methyl-naphthalen-2-yl]-acetic acid]"
8,8.59,"Cc1c(CC(=O)O)cc2ccc(F)cc2c1Oc1cc(F)c(S(C)(=O)=O)cc1F [Example 2-15, [4-(2,5-difluoro-4-methanesulfonyl-phenoxy)-6-fluoro-3-methyl-naphthalen-2-yl]-acetic acid]"
9,8.62,"CCS(=O)(=O)c1ccc(Oc2c(C)c(CC(=O)O)cc3ccc(F)cc23)c(F)c1 [Example 2-13, [4-(4-ethanesulfonyl-2-fluoro-phenoxy)-6-fluoro-3-methyl-naphthalen-2-yl]-acetic acid]"
10,8.62,"CCS(=O)(=O)c1cc(Cl)c(Oc2c(C)c(CC(=O)O)cc3ccc(F)cc23)cc1F [Example 2-25, [4-(2-chloro-4-ethanesulfonyl-5-fluoro-phenoxy)-6-fluoro-3-methyl-naphthalen-2-yl]-acetic acid]"
11,8.64,"Cc1c(CC(=O)O)cc2ccc(F)cc2c1Oc1ccc(S(=O)(=O)C2CCCC2)cc1 [Example 2-26, [4-(4-cyclopentanesulfonyl-phenoxy)-6-fluoro-3-methyl-naphthalen-2-yl]-acetic acid]"

# From US8642629B2, “Naphthylacetic acids” (Hoffmann-La Roche Inc., priority 2008, dated 2014)
